Results from US7754707B2, “Methods of treatment of chronic immune disease” (R.E.D. Laboratories, N.V./S.A., priority 2002, dated 2010).
“Also recorded” adds a separate entry of the source.

Key:
[1] = tested on: RNase L Protein in the Human Monocytic Leukemia Cell Line U937; assay: RNase L fragmentation (2-5A binding proteins) in U937 cells, treatment Regimen #1; type: cell-based; conditions: FIGS. 2 and 3 (Regimens #1 and #2)
Excerpt: (§1) In the first condition (Regimen #1), confluent cultures of U937 cells were allowed to remain in culture for an additional 7 days without feeding or media supplementation in order to induce the cells to begin to undergo apoptosis, resulting in the fragmentation of native RNase L (among other proteins).

alpha-1-antitrypsin = conditions: through direct interaction of the drug with HOCl; cited from earlier work
elastase = target: T1, elastase (Homo sapiens, UniProt P08246); assay: Fragmentation of radio labeled rRNase L by cytoplasmic protein extracts of cefoperazone-treated U937 cells; type: cell-based; conditions: extracts of U937 cells treated 72 hours with 10-1000 micrograms/mL; 15 micrograms extract, 5 minutes at 37 C; FIG. 4
T1 construct: 15 micrograms of U937 cell cytoplasmic protein extract was mixed with 0.1 microgram of ^32P-2-5A-radio labeled rRNase L; endogenous in cells; host or cells: U937 cells (cytoplasmic protein extract)
T1 sequence (P08246 30-267): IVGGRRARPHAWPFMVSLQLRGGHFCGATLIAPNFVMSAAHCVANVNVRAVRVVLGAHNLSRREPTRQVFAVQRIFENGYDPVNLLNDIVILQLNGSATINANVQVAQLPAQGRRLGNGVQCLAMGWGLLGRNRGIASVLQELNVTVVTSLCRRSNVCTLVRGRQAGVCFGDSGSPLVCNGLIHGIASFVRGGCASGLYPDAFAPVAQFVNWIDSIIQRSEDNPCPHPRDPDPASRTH
Procedure: as §1
Briefly, 15 micrograms of U937 cell cytoplasmic protein extract was mixed with 0.1 microgram of ^32P-2-5A-radio labeled rRNase L for a fixed incubation period (5 minutes) at 37 C. The reaction was terminated by the addition of 2×SDS-PAGE loading buffer, the samples were prepared and electrophoresed as described above and analyzed using densitometry.

SMILES: CCN1CCN(C(=O)N[C@@H](C(=O)N[C@@H]2C(=O)N3C(C(=O)O)=C(CSc4nnnn4C)CS[C@H]23)c2ccc(O)cc2)C(=O)C1=O [cefoperazone]
- production of the low molecular weight fragment of native RNase L protein [1]: inhibition is dose-dependent
- level of inactivation of alpha-1-antitrypsin by activated neutrophils (alpha-1-antitrypsin): reduce the level of inactivation of alpha-1-antitrypsin
- elastase activity (amount of LMW rRNase L protein generated from pre-labeled HMW rRNase L) (elastase): inhibition occurs in a dose-dependent fashion; also recorded: marked inhibition of elastase activity
